From ChEMBL document CHEMBL1201862, “PubChem BioAssay data set” (2004)
Activity calls are given as the source filed them.

Tests used:
[1] = target: Voltage-gated inwardly rectifying potassium channel KCNH2 (Homo sapiens, UniProt Q12809); details: Potency;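 further: confirmatory quantitative high-throughput screen measuring inhibition of hERG channel activity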
[2] = target: Acyl-homoserine lactone acylase PvdQ (Pseudomonas aeruginosa (strain LESB58), UniProt Q9I194); test: P. aeruginosa PvdQ acylase inhibitors, dose response, biochemical, fluorescence, plate reader and imaging, cherry-picks (AID 493231)
Acyl-homoserine lactone acylase PvdQ, sequence (Q9I194 24-193 limits assumed): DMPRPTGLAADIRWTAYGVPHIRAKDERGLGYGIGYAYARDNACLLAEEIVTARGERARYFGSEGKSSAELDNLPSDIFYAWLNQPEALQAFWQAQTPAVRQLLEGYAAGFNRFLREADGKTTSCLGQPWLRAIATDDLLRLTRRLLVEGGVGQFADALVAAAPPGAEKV
Acyl-homoserine lactone acylase PvdQ, sequence (Q9I194 217-762 limits assumed): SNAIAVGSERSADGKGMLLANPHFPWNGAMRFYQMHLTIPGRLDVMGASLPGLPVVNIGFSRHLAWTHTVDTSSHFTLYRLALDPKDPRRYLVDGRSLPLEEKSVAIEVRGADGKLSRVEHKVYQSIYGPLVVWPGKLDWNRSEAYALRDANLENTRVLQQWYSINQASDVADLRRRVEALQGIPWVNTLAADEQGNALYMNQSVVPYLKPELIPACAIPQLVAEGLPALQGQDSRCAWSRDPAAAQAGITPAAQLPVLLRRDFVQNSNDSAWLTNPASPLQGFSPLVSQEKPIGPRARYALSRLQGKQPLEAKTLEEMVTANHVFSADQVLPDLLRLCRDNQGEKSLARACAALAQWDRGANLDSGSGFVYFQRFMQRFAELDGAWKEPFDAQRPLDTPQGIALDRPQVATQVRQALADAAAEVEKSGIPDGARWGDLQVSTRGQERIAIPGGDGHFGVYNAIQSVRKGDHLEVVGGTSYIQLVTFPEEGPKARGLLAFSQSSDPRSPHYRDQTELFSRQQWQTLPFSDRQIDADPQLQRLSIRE

[3] = system: HeLa; test: HeLa cell cytotoxicity, dose response, cytotoxicity control, 48 h, plate reader, cherry-picks (AID 504942); type: functional, cell-based; details: Homo sapiens
[4] = system: Escherichia coli; test: microbe, parasite or virus in culture
[5] = system: A-375; test: A375 melanoma cell viability reduction, dose response, counter-screen for MITF modulator project, cherry-pick samples, set 2 (AID 540335); type: functional, cell-based; details: Homo sapiens
[6] = target: T1, Microphthalmia-associated transcription factor (Homo sapiens, UniProt O75030); test: TRPM1 promoter luciferase signal decrease, dose response, MITF inhibitor project, cell-based, SK-MEL-5, cherry-picked, set 3 (AID 493073); type: functional
T1 sequence (O75030 whole entry): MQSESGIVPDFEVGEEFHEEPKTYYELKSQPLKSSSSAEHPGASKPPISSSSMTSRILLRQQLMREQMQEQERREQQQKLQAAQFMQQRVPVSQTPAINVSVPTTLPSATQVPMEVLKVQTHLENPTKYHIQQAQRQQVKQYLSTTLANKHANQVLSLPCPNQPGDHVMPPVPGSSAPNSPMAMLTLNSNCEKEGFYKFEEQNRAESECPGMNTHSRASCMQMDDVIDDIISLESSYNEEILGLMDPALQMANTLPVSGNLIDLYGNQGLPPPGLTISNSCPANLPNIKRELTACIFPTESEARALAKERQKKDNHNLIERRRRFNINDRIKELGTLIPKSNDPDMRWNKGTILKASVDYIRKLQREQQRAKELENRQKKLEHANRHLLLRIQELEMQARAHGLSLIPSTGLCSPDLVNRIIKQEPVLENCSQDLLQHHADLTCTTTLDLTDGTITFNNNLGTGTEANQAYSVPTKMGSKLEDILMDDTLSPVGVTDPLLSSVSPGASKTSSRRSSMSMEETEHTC

[7] = system: A-375; test: MITF: Counter assay: A375 proliferation Measured in Cell-Based System Using Plate Reader - 2084-03_Inhibitor_Dose_DryPowder_Activity. [Related pubchem assays (depositor defined):AID488944]; type: functional; details: Homo sapiens
[8] = target: T2, Hexokinase HKDC1 (Homo sapiens, UniProt Q2TB90); test: HKDC1 hexokinase inhibitors, SAR follow-up, biochemical, set 2 (AID 588355); type: functional
T2 sequence (Q2TB90 whole entry): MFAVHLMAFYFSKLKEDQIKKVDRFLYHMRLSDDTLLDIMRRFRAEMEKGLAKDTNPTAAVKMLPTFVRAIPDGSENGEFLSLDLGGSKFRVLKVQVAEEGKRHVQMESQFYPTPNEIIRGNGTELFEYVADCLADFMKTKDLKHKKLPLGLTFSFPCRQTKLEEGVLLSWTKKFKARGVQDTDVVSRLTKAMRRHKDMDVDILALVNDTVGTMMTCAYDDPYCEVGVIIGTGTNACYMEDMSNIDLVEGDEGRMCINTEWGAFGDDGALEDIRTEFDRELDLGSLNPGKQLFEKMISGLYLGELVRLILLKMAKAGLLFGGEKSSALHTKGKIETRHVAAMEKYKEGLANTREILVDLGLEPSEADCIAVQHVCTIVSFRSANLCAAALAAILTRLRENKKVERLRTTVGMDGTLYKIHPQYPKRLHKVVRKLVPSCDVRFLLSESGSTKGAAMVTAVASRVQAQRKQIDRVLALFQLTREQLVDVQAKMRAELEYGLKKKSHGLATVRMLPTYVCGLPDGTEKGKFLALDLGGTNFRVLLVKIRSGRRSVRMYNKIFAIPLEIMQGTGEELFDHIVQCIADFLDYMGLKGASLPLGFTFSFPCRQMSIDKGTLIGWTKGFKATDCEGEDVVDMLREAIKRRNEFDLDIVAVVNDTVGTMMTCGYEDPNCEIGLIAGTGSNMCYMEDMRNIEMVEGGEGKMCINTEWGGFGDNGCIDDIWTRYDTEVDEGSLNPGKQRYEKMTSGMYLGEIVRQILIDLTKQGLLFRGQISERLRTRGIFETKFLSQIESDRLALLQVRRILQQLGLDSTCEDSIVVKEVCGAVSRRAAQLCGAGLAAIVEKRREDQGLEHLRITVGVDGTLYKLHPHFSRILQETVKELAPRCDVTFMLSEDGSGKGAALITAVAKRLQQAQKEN

[9] = target: T3, Hexokinase-1 (Homo sapiens, UniProt P19367); test: HK1 enzyme inhibition by HKDC1 hits, SAR follow-up, selectivity assay for HKDC1 inhibitor project, biochemical, set 2, resazurin fluorescence coupled readout (AID 588356); type: functional
T3 sequence (P19367 whole entry, the tested form may be a part): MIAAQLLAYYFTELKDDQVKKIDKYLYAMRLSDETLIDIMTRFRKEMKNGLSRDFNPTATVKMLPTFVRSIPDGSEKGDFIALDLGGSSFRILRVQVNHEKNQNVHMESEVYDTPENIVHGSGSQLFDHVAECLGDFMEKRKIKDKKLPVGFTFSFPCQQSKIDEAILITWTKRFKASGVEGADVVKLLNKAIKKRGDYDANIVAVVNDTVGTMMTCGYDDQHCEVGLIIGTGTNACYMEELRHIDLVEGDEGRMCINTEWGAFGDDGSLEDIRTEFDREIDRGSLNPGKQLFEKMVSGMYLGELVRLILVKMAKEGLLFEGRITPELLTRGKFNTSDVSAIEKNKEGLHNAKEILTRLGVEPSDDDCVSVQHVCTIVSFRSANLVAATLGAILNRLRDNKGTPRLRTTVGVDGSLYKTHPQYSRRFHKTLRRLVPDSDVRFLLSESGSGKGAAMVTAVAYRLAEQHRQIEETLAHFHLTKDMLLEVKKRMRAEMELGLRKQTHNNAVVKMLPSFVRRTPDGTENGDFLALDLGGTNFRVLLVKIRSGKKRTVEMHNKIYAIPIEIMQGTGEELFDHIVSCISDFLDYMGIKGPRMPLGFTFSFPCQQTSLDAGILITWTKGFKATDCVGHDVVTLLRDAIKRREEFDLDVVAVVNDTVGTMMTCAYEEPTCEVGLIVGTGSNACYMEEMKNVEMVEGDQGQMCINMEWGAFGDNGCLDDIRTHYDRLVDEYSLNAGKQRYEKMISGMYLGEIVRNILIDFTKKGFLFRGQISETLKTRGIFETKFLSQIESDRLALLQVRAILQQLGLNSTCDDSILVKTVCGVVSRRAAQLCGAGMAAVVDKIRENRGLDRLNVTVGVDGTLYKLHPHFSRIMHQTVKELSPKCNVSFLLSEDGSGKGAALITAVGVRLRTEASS

[10] = target: T3, Hexokinase-1; test: SAR analysis of small molecule inhibitors of hexokinase domain containing I (HKDC1) in the hexokinase 1 selectivity assay. [Related pubchem assays (depositor defined):AID493160, AID493190]; type: functional
[11] = target: T2, Hexokinase HKDC1; test: SAR analysis of small molecule inhibitors of hexokinase domain containing I (HKDC1). [Related pubchem assays (depositor defined):AID493160, AID493190]; type: functional

Voltage-gated inwardly rectifying potassium channel KCNH2, sequence (Q12809 whole entry): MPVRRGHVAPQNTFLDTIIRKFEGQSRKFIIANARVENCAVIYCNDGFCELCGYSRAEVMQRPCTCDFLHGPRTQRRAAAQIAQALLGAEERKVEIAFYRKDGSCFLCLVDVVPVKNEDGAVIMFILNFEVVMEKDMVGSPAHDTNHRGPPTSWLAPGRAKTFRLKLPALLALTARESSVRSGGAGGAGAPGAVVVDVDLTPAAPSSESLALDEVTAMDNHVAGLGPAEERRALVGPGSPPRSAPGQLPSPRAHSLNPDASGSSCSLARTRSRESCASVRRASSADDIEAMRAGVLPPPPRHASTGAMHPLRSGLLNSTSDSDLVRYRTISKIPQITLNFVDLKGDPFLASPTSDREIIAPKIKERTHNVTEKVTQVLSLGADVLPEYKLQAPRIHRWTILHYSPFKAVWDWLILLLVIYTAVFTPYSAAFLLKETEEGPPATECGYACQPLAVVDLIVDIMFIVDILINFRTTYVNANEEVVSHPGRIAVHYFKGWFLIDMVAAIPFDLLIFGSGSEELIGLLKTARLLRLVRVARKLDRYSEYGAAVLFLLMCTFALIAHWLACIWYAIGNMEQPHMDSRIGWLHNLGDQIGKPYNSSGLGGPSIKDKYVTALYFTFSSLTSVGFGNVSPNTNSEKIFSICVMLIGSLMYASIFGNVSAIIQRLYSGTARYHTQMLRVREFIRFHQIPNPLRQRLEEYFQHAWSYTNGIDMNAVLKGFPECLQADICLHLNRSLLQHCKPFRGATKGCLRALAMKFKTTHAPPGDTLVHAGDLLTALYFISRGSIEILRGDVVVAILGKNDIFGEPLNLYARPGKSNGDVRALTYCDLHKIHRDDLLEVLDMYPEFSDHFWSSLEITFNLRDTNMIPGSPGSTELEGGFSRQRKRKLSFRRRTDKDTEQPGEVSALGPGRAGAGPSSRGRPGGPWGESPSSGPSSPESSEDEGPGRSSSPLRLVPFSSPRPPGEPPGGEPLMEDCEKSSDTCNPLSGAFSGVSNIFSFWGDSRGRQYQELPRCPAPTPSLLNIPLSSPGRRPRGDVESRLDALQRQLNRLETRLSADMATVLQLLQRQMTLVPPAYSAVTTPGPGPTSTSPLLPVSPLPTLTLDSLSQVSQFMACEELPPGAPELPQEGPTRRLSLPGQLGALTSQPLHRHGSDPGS

With CC(C)COC(=O)COc1cc(Cl)c(Cl)cc1Cl the AC50 [1] was 39.8 µM (inconclusive).

With CN(Cc1ccccc1)c1ncnc2ccc(Br)cc12 the AC50 [2] was 4.49 µM (active) and the AC50 [3] was 115 µM (active).

With CN1CCN(C(=S)c2cn(Cc3ccc(Br)cc3)c3ccccc23)CC1 the AC50 [4] was 48.2 µM (active).

With CCOC(=O)Cn1cc([N+](=O)[O-])nc1[N+](=O)[O-] the AC50 [5] was > 11 µM (active), the AC50 [6] was 29.5 µM (active) and the AC50 [7] was > 11 µM (active).

In the case of COc1cc2c(cc1OC)-c1cc(NCCO)nc(=O)n1CC2, the IC50 [8] is reported as > 80 µM (inactive) and the IC50 [9] is reported as > 80 µM (inactive).

In the case of O=c1c2ccccc2nc(/C=C/c2cccnc2)n1Cc1ccc(Cl)cc1, the IC50 [10] is reported as > 80 µM (inactive) and the IC50 [11] is reported as > 80 µM (inactive).
